Laboratory results published in patent publication US20100075926A1, “ACTIVATION OF HISTONE DEACETYLASE 1 (HDAC1) PROTECTS AGAINST DNA DAMAGE AND INCREASES NEURONAL SURVIVAL” (priority 2008, published 2010).

Tests used:
Format in all cases: biochemical
[1] = molecular target: T1, recombinant human HDAC5 (Homo sapiens, UniProt Q9UQL6); assay: 384-well fluorometric deacetylase assay (substrate MAZ1675), HDAC5; settings: for HDAC5 slope: rate of reaction (slope), DMSO control 50401; for % HDAC5 activ: slope normalized to mean of DMSO control (DMSO = 1.00)
T1 construct: purchased BPS Biosciences
Text: (§1) TCEP was omitted from the assay buffer. Rates of reactions (slopes) were normalized to the mean of DMSO control treatments for each enzyme on each plate. Bradner J E, West N, Grachan M L, Greenberg E F, Haggarty S J, Mazitsheck. Nature Chemical Biology (under review). Bradner J E, West N, Grachan M L, Greenberg E F, Haggarty S J, Mazitsheck. Chemical Phylogenetics of Histone Deacetylases. […] Z

[2] = molecular target: T2, recombinant human HDAC1 (Homo sapiens, UniProt Q13547); assay: 384-well fluorometric deacetylase assay (substrate MAZ1600), HDAC1; set-up: % HDAC1 Activ: unit not given here; settings: for Classification: class assigned from the HDAC1, 2, 3, 5 panel; for HDAC1 slope: rate of reaction (slope), DMSO control 37787; for % HDAC1 Activ: slope normalized to mean of DMSO control (DMSO = 1.00)
T2 construct: purchased BPS Biosciences
Text: as §1

[3] = molecular target: T3, recombinant human HDAC2 (Homo sapiens, UniProt Q92769); assay: 384-well fluorometric deacetylase assay (substrate MAZ1600), HDAC2; settings: for HDAC2 slope: rate of reaction (slope), DMSO control 40839; for % HDAC2 Activ: slope normalized to mean of DMSO control (DMSO = 1.00)
T3 construct: purchased BPS Biosciences
Text: as §1

[4] = molecular target: T4, recombinant human HDAC3 (Homo sapiens, UniProt O15379); assay: 384-well fluorometric deacetylase assay (substrate MAZ1600), HDAC3; settings: for HDAC3 slope: rate of reaction (slope), DMSO control 54625; for % HDAC3 Activ: slope normalized to mean of DMSO control (DMSO = 1.00)
T4 construct: purchased BPS Biosciences
Text: as §1

T2 sequence (Q13547 whole entry): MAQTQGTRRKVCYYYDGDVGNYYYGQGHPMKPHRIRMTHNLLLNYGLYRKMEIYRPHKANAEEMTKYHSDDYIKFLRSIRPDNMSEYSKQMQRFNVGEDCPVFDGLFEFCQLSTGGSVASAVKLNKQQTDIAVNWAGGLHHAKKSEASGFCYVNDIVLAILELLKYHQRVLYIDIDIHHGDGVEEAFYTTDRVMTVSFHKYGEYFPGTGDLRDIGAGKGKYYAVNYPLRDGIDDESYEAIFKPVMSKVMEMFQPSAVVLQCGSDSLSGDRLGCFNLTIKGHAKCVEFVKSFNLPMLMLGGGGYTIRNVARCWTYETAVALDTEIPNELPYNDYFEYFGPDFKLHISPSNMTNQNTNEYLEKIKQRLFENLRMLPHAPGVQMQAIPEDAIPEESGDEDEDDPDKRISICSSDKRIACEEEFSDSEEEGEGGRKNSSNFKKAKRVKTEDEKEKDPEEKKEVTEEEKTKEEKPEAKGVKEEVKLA
T3 sequence (Q92769 whole entry): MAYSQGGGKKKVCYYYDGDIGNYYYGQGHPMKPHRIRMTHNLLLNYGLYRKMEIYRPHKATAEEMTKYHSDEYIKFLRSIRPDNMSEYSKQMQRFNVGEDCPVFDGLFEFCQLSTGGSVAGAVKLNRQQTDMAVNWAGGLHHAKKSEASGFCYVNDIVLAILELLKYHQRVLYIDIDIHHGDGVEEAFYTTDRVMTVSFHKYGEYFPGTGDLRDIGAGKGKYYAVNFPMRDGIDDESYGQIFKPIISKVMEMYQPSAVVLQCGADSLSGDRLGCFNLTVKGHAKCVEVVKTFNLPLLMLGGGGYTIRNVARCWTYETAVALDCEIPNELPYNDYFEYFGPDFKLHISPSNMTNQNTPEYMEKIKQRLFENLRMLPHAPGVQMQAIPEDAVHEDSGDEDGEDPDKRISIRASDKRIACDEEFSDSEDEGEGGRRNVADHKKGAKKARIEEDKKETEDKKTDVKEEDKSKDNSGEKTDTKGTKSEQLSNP
T4 sequence (O15379 whole entry): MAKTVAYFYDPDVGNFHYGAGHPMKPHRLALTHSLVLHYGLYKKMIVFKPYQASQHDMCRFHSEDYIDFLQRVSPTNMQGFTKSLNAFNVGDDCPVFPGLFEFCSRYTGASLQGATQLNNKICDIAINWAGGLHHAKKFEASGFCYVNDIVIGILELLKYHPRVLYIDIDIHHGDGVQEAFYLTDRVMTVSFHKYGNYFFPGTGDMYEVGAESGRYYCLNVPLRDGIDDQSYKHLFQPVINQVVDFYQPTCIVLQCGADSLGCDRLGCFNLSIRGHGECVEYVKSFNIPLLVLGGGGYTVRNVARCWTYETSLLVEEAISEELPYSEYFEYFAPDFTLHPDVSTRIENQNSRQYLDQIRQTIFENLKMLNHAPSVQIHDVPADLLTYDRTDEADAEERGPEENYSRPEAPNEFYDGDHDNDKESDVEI
T4 sequence (Q9Y618 395-489 partner limits assumed): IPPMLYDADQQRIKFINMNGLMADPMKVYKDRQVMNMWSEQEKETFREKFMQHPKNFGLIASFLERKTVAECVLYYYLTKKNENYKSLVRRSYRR
T1 sequence (Q9UQL6 whole entry): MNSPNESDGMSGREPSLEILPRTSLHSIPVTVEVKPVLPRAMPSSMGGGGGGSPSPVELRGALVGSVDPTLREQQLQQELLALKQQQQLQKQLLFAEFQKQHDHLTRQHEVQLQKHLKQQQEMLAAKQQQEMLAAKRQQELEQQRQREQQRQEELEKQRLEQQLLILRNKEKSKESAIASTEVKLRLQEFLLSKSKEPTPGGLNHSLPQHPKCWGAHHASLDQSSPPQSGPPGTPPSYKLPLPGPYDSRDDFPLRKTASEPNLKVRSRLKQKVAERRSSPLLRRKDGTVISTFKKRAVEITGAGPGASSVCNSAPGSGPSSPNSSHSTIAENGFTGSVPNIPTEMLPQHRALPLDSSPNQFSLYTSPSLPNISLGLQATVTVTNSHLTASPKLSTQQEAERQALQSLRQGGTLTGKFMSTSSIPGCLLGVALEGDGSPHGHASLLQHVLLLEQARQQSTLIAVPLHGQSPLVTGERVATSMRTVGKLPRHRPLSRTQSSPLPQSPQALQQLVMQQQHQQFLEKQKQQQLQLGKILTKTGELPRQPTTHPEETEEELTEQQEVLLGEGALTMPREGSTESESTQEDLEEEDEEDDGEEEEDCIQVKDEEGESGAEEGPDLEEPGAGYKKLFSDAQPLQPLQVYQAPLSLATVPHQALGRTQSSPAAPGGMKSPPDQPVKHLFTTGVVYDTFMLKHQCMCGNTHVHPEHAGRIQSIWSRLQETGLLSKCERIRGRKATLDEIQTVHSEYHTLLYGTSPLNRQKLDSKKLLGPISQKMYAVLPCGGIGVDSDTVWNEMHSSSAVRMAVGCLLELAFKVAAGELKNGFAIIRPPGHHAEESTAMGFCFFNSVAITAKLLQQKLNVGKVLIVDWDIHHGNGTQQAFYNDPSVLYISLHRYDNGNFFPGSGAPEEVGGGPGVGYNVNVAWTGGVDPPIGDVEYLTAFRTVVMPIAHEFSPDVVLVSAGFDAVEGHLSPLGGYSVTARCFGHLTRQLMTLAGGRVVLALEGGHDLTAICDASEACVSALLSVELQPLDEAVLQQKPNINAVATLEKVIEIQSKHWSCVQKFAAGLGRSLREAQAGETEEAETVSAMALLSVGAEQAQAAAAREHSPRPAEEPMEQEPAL

Compound: C[C@H](N)[C@H](O)c1ccc(O)c(O)c1 [Levonordefrin]
- HDAC5 slope [1]: 47752
- Classification [2]: HDAC1 & HDAC3 activator
- HDAC1 slope [2]: 40405
- HDAC2 slope [3]: 40182
- HDAC3 slope [4]: 62457

Compound: C[C@](N)(Cc1ccc(O)c(O)c1)C(=O)O [Methyldopa (L,-)]
- HDAC5 slope [1]: 56516
- Classification [2]: HDAC1 & HDAC3 activator
- HDAC1 slope [2]: 40553
- HDAC2 slope [3]: 42153
- HDAC3 slope [4]: 60891

Compound: NCC(CC(=O)O)c1ccc(Cl)s1 (racemic) [(+-)-4-amino-3-(5-chloro-2-thienyl)-butanoic acid]
- HDAC5 slope [1]: 50272
- % HDAC5 activ [1]: 100%
- Classification [2]: HDAC1 activator
- HDAC1 slope [2]: 40239
- % HDAC1 Activ [2]: 1.06
- HDAC2 slope [3]: 40008
- % HDAC2 Activ [3]: 0.98 fraction of DMSO control
- HDAC3 slope [4]: 54049
- % HDAC3 Activ [4]: 0.99 fraction of DMSO control

Compound: NC(C(=O)O)c1nnn[nH]1 (racemic)
- HDAC5 slope [1]: 45589
- Classification [2]: HDAC1 activator
- HDAC1 slope [2]: 40343
- HDAC2 slope [3]: 42215
- HDAC3 slope [4]: 56930

Compound: CCN(CC)CCc1nc(-c2ccccc2)no1.O=C(O)CC(O)(CC(=O)O)C(=O)O [Oxalamine citrate salt]
- HDAC5 slope [1]: 47216
- Classification [2]: HDAC1 & HDAC3 activator
- HDAC1 slope [2]: 40700
- HDAC2 slope [3]: 41269
- HDAC3 slope [4]: 60752

Compound: COc1cc([C@@H]2c3cc4c(cc3[C@H](O)[C@H]3COC(=O)[C@H]23)OCO4)cc(OC)c1OC [Podophyllo toxin, podophyllotoxin]
- HDAC5 slope [1]: 54734
- Classification [2]: HDAC1 activator
- HDAC1 slope [2]: 40983
- HDAC2 slope [3]: 39197
- HDAC3 slope [4]: 53416

Compound: CC(O)(P(=O)([O-])O)P(=O)([O-])O.[Na+].[Na+] [Etidronic acid, disodium salt]
- HDAC5 slope [1]: 51711
- Classification [2]: HDAC1 & HDAC3 activator
- HDAC1 slope [2]: 40241
- HDAC2 slope [3]: 41315
- HDAC3 slope [4]: 58286

Compound: O=C(O)[C@@H]1C[C@H]2C[C@@H](CP(=O)(O)O)CC[C@H]2CN1 [LY 235959]
- HDAC5 slope [1]: 43688
- Classification [2]: HDAC1 & HDAC3 activator
- HDAC1 slope [2]: 40893
- HDAC2 slope [3]: 42923
- HDAC3 slope [4]: 65435

Compound: Oc1cc2c(c(Cl)c1O)CCNC[C@@H]2c1ccccc1 [R(+)-SKF- 81297]
- HDAC5 slope [1]: 48294
- Classification [2]: HDAC1 & HDAC3 activator
- HDAC1 slope [2]: 40201
- HDAC2 slope [3]: 42197
- HDAC3 slope [4]: 66733

Compound: CP(=O)(O)CCCN [SK&F 97541]
- HDAC5 slope [1]: 49250
- Classification [2]: HDAC1 activator
- HDAC1 slope [2]: 40213
- HDAC2 slope [3]: 39881
- HDAC3 slope [4]: 54915

Compound: phenazopyridine hydrochloride [Phenazo- pyridine hydrochloride]
- HDAC5 slope [1]: 54125
- % HDAC5 activ [1]: 107%
- Classification [2]: HDAC1 activator
- HDAC1 slope [2]: 40631
- % HDAC1 Activ [2]: 1.08
- HDAC2 slope [3]: 42470
- % HDAC2 Activ [3]: 1.04 fraction of DMSO control
- HDAC3 slope [4]: 56613
- % HDAC3 Activ [4]: 1.04 fraction of DMSO control

Compound: N[C@H](CC(=O)O)C(=O)O [D- ASPARTIC ACID, D-aspartic acid]
- HDAC5 slope [1]: 45291
- Classification [2]: HDAC1 activator
- HDAC1 slope [2]: 40655
- HDAC2 slope [3]: 42016
- HDAC3 slope [4]: 54899

Compound: O=C(O)[C@H]1C[C@@H](CP(=O)(O)O)CCN1 [CGS 19755]
- HDAC5 slope [1]: 48280
- Classification [2]: HDAC1 activator
- HDAC1 slope [2]: 41839
- HDAC2 slope [3]: 42301
- HDAC3 slope [4]: 57057

Compound: CC1(C)S[C@@H]2[C@H](NC(=O)[C@H](N)c3ccccc3)C(=O)N2[C@H]1C(=O)O [Ampicillin trihydrate]
- HDAC5 slope [1]: 46606
- Classification [2]: HDAC1 & HDAC3 activator
- HDAC1 slope [2]: 40160
- HDAC2 slope [3]: 43966
- HDAC3 slope [4]: 56660
